Laboratory results from patent publication US12472166B2, “Inhibition of mycobacterial type VII secretion” (priority 2019, dated 2025).
Where two headings read alike, the source gives them in different places.

How the values were obtained:
M. tuberculosis = test: microbe, parasite or virus in culture; format: cell-based; conditions: for IC50: read-out: IC50 (μM) M.tb/REMA; for IC90: read-out: IC90 (μM) M.tb/REMA; for increase of activity as compared to compound I-12: tested on M. tuberculosis
[1] = human, microsomes, pH 7.4; for Compound remaining (%): 0.5 h
in vitro = conditions: human, microsomes, pH 7.4
M. tuberculosis H37Rv WT = test: THP-1 macrophage infection study, CFU counting; format: cell-based, Mycobacterium tuberculosis; conditions: for activity compared with Ethambutol (EMB) / activity compared with Streptomycin (STR) / reduction of bacteria as compared to the DMSO control: 10 μM
[2] = test system: M. marinum WT bacteria expressing rfp; conditions: 10 μM
Description: To assess anti-bacterial activity of the compounds in an animal model, zebra-fish embryos were infected by injection of WT M. marinum into the cardinal vein. The bacteria express rfp, which enables the quantification of infection in vivo by measuring red fluorescence. After injection of the bacteria into the fish, the infection was allowed to establish for 20 h. Then, the test compounds or DMSO control were added for three days before the infection was quantified by measuring fluorescence in each fish. […] Dechorionated zebra fish embryos were one day post fertilization infected by microinjection into the cardinal vein with 70 M. marinum WT bacteria expressing rfp. 20 h after infection, the compounds were added to the fish water at the indicated concentrations. After 4 days post infection the fish were imaged on a fluorescent microscope (A) and red pixels were quantified (B). As control served non-treated fish and non-infected fish. The fish water of all groups contained equal amounts of DMSO. Each data point represents a single fish. […] Statistical analysis was determined by ANOVA testing by comparing each group to the non-treated group of fish. p>0.05, not significant, not indicated. p<0.05=*, p<0.01=**, p<0.001=***.

M. marinum = format: cell-based
zebrafish embryos = conditions: in vivo
[3] = Mycobacterium tuberculosis, 168 h, replicating M. tuberculosis, seven days, 37° C.
[4] = Mycobacterium tuberculosis, concentration that reduced bacterial viability to lower than 10%
[5] = THP-1 macrophages, MOI 1, day 5
[6] = Mycobacterium tuberculosis, 168 h

Row | Structure (SMILES) | IC50 (M. tuberculosis; [3]) | IC90 (M. tuberculosis; [4]) | other results
1 | C#CCNC(=O)CSc1nc(-c2ccc(OC)cc2)ns1 [Compound I-7] | 0.306 µM | 0.63 µM | –
2 | COc1ccc(-c2nsc(SCC(=O)NC3CC3)n2)cc1 [Compound I-13] | 0.478 µM | 1.25 µM | –
3 | COCCNC(=O)CSc1nc(-c2ccc(OC)cc2)ns1 [Compound I-4] | 0.133 µM | 0.63 µM | –
4 | COc1cccc(-c2nsc(SCC(=O)NC3CCCC3)n2)c1 [Compound I-8] | 0.076 µM | 1.25 µM | –
5 | COc1ccc(-c2nsc(SCC(=O)N3CCCCC3)n2)cc1 [Compound I-11] | 0.531 µM | 1.25 µM | –
6 | COc1ccc(-c2nsc(SCC(=O)NC(C)(C)C)n2)cc1 [Compound I-32] | 0.109 µM | > 10 µM | –
7 | CCCNC(=O)CSc1nc(-c2ccc(Cl)cc2)ns1 [Compound I-36] | 0.058 µM | 0.16 µM | Half-life ([1]; 15 μM): 43.2 min; Compound remaining (%) [1]: 62%; CLint scaled at 15 μM (in vitro): 14.4 mL/min/kg
8 | CNC(=O)CSc1nc(-c2ccc(OC)cc2)ns1 [Compound I-27] | 1.85 µM | 5 µM | –
9 | O=C(CSc1nc(-c2ccccc2)ns1)NC1CCCC1 [Compound I-5] | – | – | IC50 (M. tuberculosis): 0.256 µM; IC90 (M. tuberculosis): 0.63 µM; increase of activity as compared to compound I-12 (M. tuberculosis): two-fold; concentration required to reduce the bacterial load below the initial amount on day 0 (M. tuberculosis H37Rv WT; [5]): 10 µM; concentration with significant decrease of bacterial load as compared to the DMSO control (M. tuberculosis H37Rv WT; [5]): 3 µM; Half-life ([1]; 15 μM): 70.8 min; Compound remaining (%) [1]: 75%; CLint scaled at 15 μM (in vitro): 8.78 mL/min/kg
10 | COc1ccc(-c2nsc(SCC(=O)OC3CCCC3)n2)cc1 [Compound I-25] | 0.526 µM | 5 µM | –
11 | CCCNC(=O)CSc1nc(-c2ccc(OC)cc2)ns1 [Compound I-3] | 0.123 µM | 0.63 µM | increase of activity as compared to compound I-12 (M. tuberculosis): four-fold; activity compared with Ethambutol (EMB) (M. tuberculosis H37Rv WT): as active as EMB; activity compared with Streptomycin (STR) (M. tuberculosis H37Rv WT): higher activity than STR; reduction of bacteria as compared to the DMSO control (M. tuberculosis H37Rv WT): approximately 100 fold; concentration with significant decrease of bacterial load as compared to the DMSO control (M. tuberculosis H37Rv WT; [5]): 1 µM; Half-life ([1]; 15 μM): 9 min; Compound remaining (%) [1]: 11%; bacterial fluorescence [2]: reduction of bacterial fluorescence to background levels; CLint scaled at 15 μM (in vitro): 67.4 mL/min/kg
12 | O=C(COc1nc(-c2ccccc2)ns1)NC1CCCC1 [Compound I-33] | 7.85 µM | 10 µM | Half-life ([1]; 15 μM): 61.8 min; Compound remaining (%) [1]: 72%; CLint scaled at 15 μM (in vitro): 10.1 mL/min/kg
13 | CCNC(=O)CSc1nc(-c2ccccc2)ns1 [Compound I-10] | 0.383 µM | 1.25 µM | –
14 | COc1ccc(-c2nsc(SCC(=O)Nc3ccccn3)n2)cc1 [Compound I-20] | 0.502 µM | 2.5 µM | –
15 | CCCC(C)NC(=O)CSc1nc(-c2ccc(OC)cc2)ns1 (stereo not drawn) [Compound I-29] | 1.25 µM | 10 µM | –
16 | CO[C@H]1/C=C/O[C@@]2(C)Oc3c(C)c(O)c4c(O)c(c(/C=N/N5CCN(C)CC5)c(O)c4c3C2=O)NC(=O)/C(C)=C\C=C\[C@H](C)[C@H](O)[C@@H](C)[C@@H](O)[C@@H](C)[C@H](OC(C)=O)[C@@H]1C [Rifampin, reference compound] | – | – | bacterial viability (REMA) readout, control condition (M. marinum): negative
17 | CCOC(=O)CNC(=O)CSc1nc(-c2ccccc2)ns1 [Compound I-41, reference compound] | – | – | IC50 (M. tuberculosis; [6]): 0.269 µM; IC90 (M. tuberculosis; Mycobacterium tuberculosis): 0.63 µM; toxicity (survival of zebra fish embryos scored by heartbeat) (zebrafish embryos): toxic
18 | COc1ccc(-c2nsc(SCC(=O)N3CCOCC3)n2)cc1 [Compound I-15] | 0.121 µM | 2.5 µM | –
19 | COc1ccc(-c2nsc(SCC(=O)Nc3cnccn3)n2)cc1 [Compound I-24] | 4.1 µM | 2.5 µM | –
20 | COc1ccc(-c2nsc(SCC(=O)NC(C)C)n2)cc1 [Compound I-9] | 0.152 µM | 1.25 µM | –
21 | O=C(CSc1nc(-c2ccc(Cl)cc2)ns1)NCCC(F)(F)F [Compound I-37] | 0.116 µM | 0.31 µM | Compound remaining (%) [1]: 55%; Half-life [1]: 34.8 min; CLint scaled (in vitro): 18 mL/min/kg

Row | Structure (SMILES) | IC50 (M. tuberculosis; [3]) | IC90 (M. tuberculosis; [4]) | other results
22 | COc1ccc(-c2nsc(SCC(=O)NCc3ccccc3)n2)cc1 [Compound I-30] | 2.42 µM | 10 µM | –
23 | O=C(CSc1nc(-c2ccccc2)ns1)NC1CCCC1 [Compound I-26] | 1.17 µM | 5 µM | –
24 | O=C(CSc1nc(-c2ccc(Cl)cc2)ns1)NC1CCCC1 [Compound I-17] | 0.21 µM | 2.5 µM | –
25 | CCCCNC(=O)CSc1nc(-c2ccc(OC)cc2)ns1 [Compound I-14] | 0.496 µM | 1.25 µM | –
26 | CCCCCNC(=O)CSc1nc(-c2ccc(OC)cc2)ns1 [Compound I-2] | 0.098 µM | 0.31 µM | –
27 | Cc1cccc(-c2nsc(SCC(=O)NCC3CCCO3)n2)c1 (stereo not drawn) [Compound I-39, reference compound] | – | – | IC50 (M. tuberculosis; [6]): 0.248 µM; IC90 (M. tuberculosis; Mycobacterium tuberculosis): 0.63 µM; toxicity (survival of zebra fish embryos scored by heartbeat) (zebrafish embryos): least toxic of the comparative compounds
28 | COc1ccc(-c2nsc(SCC(=O)Nc3ccccc3)n2)cc1 [Compound I-21] | 0.559 µM | 2.5 µM | –
29 | O=C(CSc1nc(-c2ccccc2)no1)NC1CCCC1 [Compound I-31] | – | – | growth of M. tuberculosis (M. tuberculosis; 10 μM): inhibited growth; IC50 (M. tuberculosis): 2.71 µM; IC90 (M. tuberculosis): 10 µM
30 | CCCNC(=O)COc1nc(-c2ccccc2)ns1 [Compound I-42] | > 10 µM | > 10 µM | –
31 | COc1ccc(-c2nsc(SCC(=O)NCCC(F)(F)F)n2)cc1 [Compound I-34] | 0.038 µM | 0.31 µM | –
32 | CCCNC(=O)CSc1nc(-c2ccccc2)ns1 [Compound I-1] | 0.083 µM | 0.16 µM | increase of activity as compared to compound I-12 (M. tuberculosis): eight-fold; activity compared with Ethambutol (EMB) (M. tuberculosis H37Rv WT): as active as EMB; activity compared with Streptomycin (STR) (M. tuberculosis H37Rv WT): higher activity than STR; reduction of bacteria as compared to the DMSO control (M. tuberculosis H37Rv WT): approximately 100 fold; concentration with significant decrease of bacterial load as compared to the DMSO control (M. tuberculosis H37Rv WT; [5]): 1 µM; Half-life ([1]; 15 μM): 45.6 min; Compound remaining (%) [1]: 64%; CLint scaled at 15 μM (in vitro): 13.6 mL/min/kg
33 | Cc1cccc(-c2nsc(SCC(=O)NC3CCCC3)n2)c1 [Compound I-16] | 0.121 µM | 2.5 µM | –
34 | O=C(CSc1nc(-c2cccnc2)ns1)NC1CCCC1 [Compound I-19] | 0.502 µM | 2.5 µM | –
35 | O=C(CSc1nc(-c2ccncc2)ns1)NC1CCCC1 [Compound I-23] | 0.762 µM | 2.5 µM | –
36 | CCOC(=O)CNC(=O)CSc1nc(-c2cccc(C)c2)ns1 [Compound I-40, reference compound] | – | – | IC50 (M. tuberculosis; [6]): 0.169 µM; IC90 (M. tuberculosis; Mycobacterium tuberculosis): 0.31 µM; toxicity (survival of zebra fish embryos scored by heartbeat) (zebrafish embryos): toxic
37 | C=CCNC(=O)CSc1nc(-c2ccc(OC)cc2)ns1 [Compound I-6] | – | – | IC50 (M. tuberculosis; [6]): 0.291 µM; IC90 (M. tuberculosis; Mycobacterium tuberculosis): 0.63 µM
38 | COc1ccc(-c2nsc(SCC(=O)NC3CCCCC3)n2)cc1 [Compound I-22] | 0.663 µM | 2.5 µM | –
39 | O=C(CSc1nc(-c2ccccc2)no1)NC1CCCC1 [Compound I-28] | – | – | IC50 (M. tuberculosis; [6]): 2.11 µM; IC90 (M. tuberculosis; Mycobacterium tuberculosis): 5 µM
40 | O=C(CSc1nc(-c2ccccc2)ns1)NCCC(F)(F)F [Compound I-35] | 0.224 µM | 0.63 µM | Half-life ([1]; 15 μM): 48.6 min; Compound remaining (%) [1]: 65%; CLint scaled at 15 μM (in vitro): 12.8 mL/min/kg
41 | Cc1cccc(-c2nsc(SCC(=O)N3CCCCC3)n2)c1 [Compound I-18, reference compound] | 0.251 µM | 2.5 µM | –
42 | COc1ccc(-c2nsc(SCC(=O)NCC3CCCC3)n2)cc1 [Compound I-38, reference compound] | – | – | IC50 (M. tuberculosis; [6]): 0.447 µM; IC90 (M. tuberculosis; Mycobacterium tuberculosis): 1.25 µM; toxicity (survival of zebra fish embryos scored by heartbeat) (zebrafish embryos): somewhat less toxic than I-40 and I-41
